Measured values published in patent US9883691B2, “Food and beverage products containing 1,3-propanediol and methods of modifying flavor release using 1,3-propanediol” (Kraft Foods Group Brands LLC, priority 2012, dated 2018).
Counter-ions that a name gives are not always drawn.

Key:
[1] = PTR-MS real-time headspace release, watermelon flavor model in water (Example 1); format: physicochemical; design: Sample A (PG) Mean / Sample B (1,3-propanediol) Mean: unit not given here
Description: The impact of 1,3-propanediol on the release of flavor compounds can be analyzed by Proton Transfer Reaction Mass Spectrometry (PTR-MS; model TOF-8000 from Ionicon Analytik Inc.), where real-time headspace release of volatiles is measured. A sampling apparatus is needed in conjunction with the PTR-MS inlet to prevent variations caused by headspace kinetics. By one exemplary approach, the sampling apparatus includes a 4 ounce sample vessel equipped with a 2-hole lid which may be sealed by an adhesive film to allow equilibration. […]. The holes are equal sized (˜2 mm diameter) and match the outer diameter of the PTR-MS inlet line. The flow of the dilution gas into the vessel is regulated by the vacuum and proportional valve of the PTR-MS inlet system. The sample vessel has a base diameter of 47 mm and is 45 mm high, of which 8 mm of height is occupied by the sample in the vessel in these experiments. The 2 holes in the lid are equidistant from the edge of the vessel (˜20 mm) and about 30 mm from each other. The PTR-MS inlet is braced by clamps in a fixed position vertically above the laboratory bench (˜55 mm) and a silicone rubber depth gauge is affixed to the PTR-MS inlet tubing and set at 18 mm. The PTR-MS inlet is thus consistently oriented in a vertical position 18 mm below the inside lid of the vessel and 19 mm above the sample in the vessel. The sample vessel is then held in place during sampling according to the depth gauge on the inlet line and the vessel is subsequently supported on the bench by a 10 mm plastic spacer.
15 grams of the sample to be tested (e.g., food or beverage product containing 1,3-propanediol) are added to the vessel. The vessel is sealed and allowed to equilibrate at room temperature (˜22° C.) for 90 minutes. At the time of sampling, the seal is removed from both the sampling hole and the dilution gas hole in the lid and the vessel is immediately affixed to the PTR-MS inlet via the sampling hole. The real-time released flavor is measured from the headspace of the sample vessel for two minutes (according to the conditions listed in Table 1 below). A comparative sample is prepared that is otherwise identical to the test sample but contains propylene glycol or water instead of 1,3-propanediol. The comparative sample is then analyzed in triplicate by PTR-MS using the above-described procedure. The data can be analyzed using PTR-MS Viewer, Version 3.0.0.101 (Ionicon Analytik G.m.b.H). The point of maximum intensity for each compound of interest can be determined and recorded according to the PTR-MS Viewer software. The maximum intensity in counts over the timescale for each compound of interest can be used for data analysis as it reflects the static equilibrium headspace concentration in the system at the moment of seal removal. Due to the necessity of a dilution gas, the volatile concentration decreases over time as the compounds of interest re-equilibrate to a state of dynamic equilibrium in the headspace.
[…]. Sample A was prepared with 20 grams watermelon flavor concentrate and 80 grams propylene glycol. Sample B was prepared with 20 grams watermelon flavor concentrate and 80 grams 1,3-propanediol. Each of the samples was further diluted by adding 0.08 grams of each diluted concentrate to 99.92 grams water to provide a flavor water solution.
The diluted samples were analyzed by Proton Transfer Reaction Mass Spectrometry (PTR-MS; model TOF-8000 from Ionicon Analytik Inc.) for real-time headspace release volatiles measurement. Samples were analyzed in triplicate. […]. […].

[2] = not marked (est); cited from earlier work

CCOC=O [Ethyl formate]
Sample B (1,3-propanediol) Mean ([1]; PTR-MS headspace, watermelon flavor concentrate in 1,3-propanediol, diluted in water, 90 minutes equilibration, mean of three): 41.67
Sample A (PG) Mean ([1]; PTR-MS headspace, watermelon flavor concentrate in propylene glycol, diluted in water, 90 minutes equilibration, mean of three): 50.50
Percent Release Difference ([1]; Sample B (1,3-propanediol) relative to Sample A (PG)): −17.5%
logP (o/w) [2]: 0.23
